The subject of data set [1] is Wistar rats. In words: Toxicity study of compound 24 in Wistar rats (blood biochemistry, haematology). The format is in vivo. The settings on record: Wistar rats and Kunming mice, GLP guideline of China. As to the method: Wistar rats (n = 8) and Kunming mice (n = 30) were employed in this study to investigate the acute toxicity of compound 24. Compound 24 was intraperitoneally administered with three doses of 5, 15 and 50 mg/kg/2 days for 30 days. Controls received a similar volume of sodium dihydrogen phosphate. At the end of the experimental period, overnight fasted animals were sacrificed by cervical decapitation under light ether anesthesia and blood was collected, serum was separated by centrifuging at 3,000 rpm for 10 min. The serum was used for the assay of the biochemical parameters using Chemistry Analyzer […] (Vital, Netherlands).

Data set [2] deals with T1, GLP-1 receptor (GLP-1R) (Rattus norvegicus, UniProt P32301).
T1 construct: endogenous in cells; host or cells: rat INS-1 cells
T1 sequence (P32301 22-463): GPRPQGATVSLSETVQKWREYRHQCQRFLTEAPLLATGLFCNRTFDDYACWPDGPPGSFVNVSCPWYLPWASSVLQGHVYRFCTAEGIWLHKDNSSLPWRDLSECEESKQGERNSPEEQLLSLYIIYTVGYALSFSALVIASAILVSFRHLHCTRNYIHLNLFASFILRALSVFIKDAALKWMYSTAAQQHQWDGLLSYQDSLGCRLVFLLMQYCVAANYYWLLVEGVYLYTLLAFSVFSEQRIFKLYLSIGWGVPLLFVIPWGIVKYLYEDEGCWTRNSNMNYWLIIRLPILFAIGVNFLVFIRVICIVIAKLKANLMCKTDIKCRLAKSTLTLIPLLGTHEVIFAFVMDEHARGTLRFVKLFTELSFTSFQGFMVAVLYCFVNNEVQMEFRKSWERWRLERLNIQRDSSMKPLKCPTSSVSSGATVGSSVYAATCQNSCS
The data set can be described thus: GLP-1 receptor binding assay (cellular ELISA). In short, it runs like this:
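Cells were fixed with 4% paraformaldehyde, quenched with 2% glycine (pH 7.5), then incubated with peptides for 2 h at 37 °C, washed and blocked with 5% BSA. Absorbance was read at 450 nm. Kd was fitted from peptide concentration versus absorbance.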

A short description of data set [3]: Blood retention time measurement. The settings on record: 500 μg/kg s.c., Wistar rats, n = 5; 0.5-96 h; GLP-1 (7–37) ELISA.
Data set [4] deals with Wistar rats. In words: Single-dose glucoregulatory assay (glucose tolerance test). The format is in vivo. To be noted: calculated from the single dose glucose tolerance test in rats. On the procedure:
In this assay, the derivatives were administered once, and the blood glucose levels were monitored over 120 h. It was presumed that the apparent half-lives of the derivatives could be obtained by this single-dose glucose tolerance test, which would be beneficial for the determination of the administration frequency in future long-term glucose tolerance tests. Each derivative (300 μg/kg body weight) was subcutaneously injected into fasting male Wistar rats (n = 7 per group) 30 min prior to glucose administration. GLP-1 and saline were injected into the control animals. Rats were given 2 g glucose/kg body weight via intraperitoneal injections. Blood was drawn from the tail vein, and glucose levels were measured using a glucometer 30 min after glucose administration. Chronic glucose injections (2 g/kg body weight) were administered 30 min prior to each blood glucose measurement time point during the 120-h experimental period.

The target in data set [5] is T2, DPP IV enzyme (Homo sapiens, UniProt P27487).
T2 construct: purchased Sigma-Aldrich
T2 sequence (P27487 whole entry, species assumed): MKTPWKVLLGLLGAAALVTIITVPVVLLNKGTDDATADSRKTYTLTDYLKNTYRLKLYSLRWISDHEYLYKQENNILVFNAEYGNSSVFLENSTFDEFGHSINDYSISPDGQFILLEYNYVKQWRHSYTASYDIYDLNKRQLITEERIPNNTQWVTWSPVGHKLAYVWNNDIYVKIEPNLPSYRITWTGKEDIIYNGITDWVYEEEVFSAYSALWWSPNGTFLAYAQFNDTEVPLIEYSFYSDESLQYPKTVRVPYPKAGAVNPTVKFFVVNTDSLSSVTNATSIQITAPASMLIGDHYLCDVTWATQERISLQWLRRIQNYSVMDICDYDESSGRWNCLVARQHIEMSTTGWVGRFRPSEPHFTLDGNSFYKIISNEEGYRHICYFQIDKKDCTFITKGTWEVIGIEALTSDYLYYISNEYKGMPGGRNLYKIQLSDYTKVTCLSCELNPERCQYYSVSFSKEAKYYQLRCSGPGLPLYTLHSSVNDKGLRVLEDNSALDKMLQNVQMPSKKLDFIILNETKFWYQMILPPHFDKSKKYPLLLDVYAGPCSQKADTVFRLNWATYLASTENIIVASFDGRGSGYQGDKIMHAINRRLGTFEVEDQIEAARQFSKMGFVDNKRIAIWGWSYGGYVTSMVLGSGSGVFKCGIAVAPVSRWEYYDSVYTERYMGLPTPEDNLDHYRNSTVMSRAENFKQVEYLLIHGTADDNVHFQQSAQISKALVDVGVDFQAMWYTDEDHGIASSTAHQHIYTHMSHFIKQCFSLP
In words: Stability against DPP IV proteolysis with or without HSA. Type of data set: in vitro ADME.
Experimental: DPP IV enzyme (0.1 mg/ml) was dissolved in 25 mM potassium phosphate buffer containing 25 mM potassium chloride and 5 mM magnesium chloride, pH 7.0.

Each structure is given as a SMILES string.

Results on one molecule are retold here after publication PMC4676015, “Variant fatty acid-like molecules Conjugation, novel approaches for extending the stability of therapeutic peptides” (Scientific Reports, 2015).

Turning to `CC[C@H](C)[C@H](NC(=O)[C@H](Cc1ccccc1)NC(=O)[C@H](CCC(=O)NCCCCCCCCCCCC(=O)O)NC(=O)[C@H](CCCCN)NC(=O)[C@H](C)NC(=O)[C@H](C)NC(=O)[C@H](CCC(N)=O)NC(=O)CNC(=O)[C@H](CCC(=O)O)NC(=O)[C@H](CC(C)C)NC(=O)[C@H](Cc1ccc(O)cc1)NC(=O)[C@H](CO)NC(=O)[C@H](CO)NC(=O)[C@@H](NC(=O)[C@H](CC(=O)O)NC(=O)[C@H](CO)NC(=O)[C@@H](NC(=O)[C@H](Cc1ccccc1)NC(=O)[C@@H](NC(=O)CNC(=O)[C@H](CCC(=O)O)NC(=O)[C@H](C)NC(=O)[C@@H](N)Cc1c[nH]cn1)[C@@H](C)O)[C@@H](C)O)C(C)C)C(=O)N[C@@H](C)C(=O)N[C@@H](Cc1c[nH]c2ccccc12)C(=O)N[C@@H](CC(C)C)C(=O)N[C@H](C(=O)N[C@@H](CCCCN)C(=O)NCC(=O)N[C@@H](CCCNC(=N)N)C(=O)NCC(=O)O)C(C)C` [compound 24], in data set [1], the “acute toxicity and blood biochemistry tests” value is given as “no toxicity was observed”. In data set [2], this molecule registered a Kd of 17.6 ± 1.76 nM. For the same molecule, in data set [3], the “increase of circulating amount (AUC GLP-1 (7-37)) compared with native GLP-1” value came out at 2.7 fold. Besides, the observed half-life in data set [4] is listed as 9.6 h. The “detectability of full-length peptide at 24 h” value in data set [5] (DPP IV 0.1 mg/ml, pH 7.0, in the presence of human serum albumin (2%), peptide 1 mg/ml, 37 °C, GLP-1 (7–37) ELISA) is recorded as “still detectable at 24 h”. For the same molecule, the “AUC0–24 h, amount of undigested GLP-1 fragments compared with wild-type GLP-1” value in data set [5] (DPP IV proteolysis solution, 37 °C, 0-24 h, GLP-1 (7–37) ELISA, P < 0.01) is on record as “approximately 3.5 fold”. In addition, in data set [5] (DPP IV proteolysis solution, 37 °C, GLP-1 (7–37) ELISA, P < 0.01), the “AUCGLP-1(7–37) in proteolysis solution compared to native GLP-1” value is “significantly increased”. For the same molecule, in data set [5] (DPP IV proteolysis, same carbon chain length without free carboxyl group as comparator), the “degradation rate against DPP IV compared with compounds 6 and 21, respectively” value is reported as “significantly lower degradation rates”.
